Results as given in patent US12168763B2, “Microorganisms and methods for reducing bacterial contamination” (Melio Peptide Systems Inc., priority 2020, dated 2024).

How the values were obtained:
[1] = system: L. reuteri CCUG 32624; assay: Soft-agar overlay screen of peptide-expressing yeast (BY4742)
[2] = system: L. fermentum NCCB 46038; assay: as above
[3] = system: P. pentosaceus NCCB 31016; assay: as above; conditions: soft-agar overlay, peptide-expressing yeast
[4] = system: E. faecium NCCB 86023; assay: as above
[5] = system: W. confusa CCUG30113; assay: as above
[6] = system: W. confusa CCUG30943; assay: as above
[7] = system: L. lactis NCCB 26066; assay: as above
[8] = system: L. delbrueckii CCUG 34222; assay: as above
[9] = system: Lactobacillus amylovorus; assay: Soft-agar overlay screen of peptide-expressing yeast, other lactic acid bacteria; assay type: cell-based; conditions: sometimes weak
[10] = system: Lactobacillus casei; assay: as above; assay type: cell-based; conditions: sometimes weak
[11] = system: L. fermentum NCCB 46038; assay: Soft-agar overlay assay of S. cerevisiae BY4742 secreting persulcatusin variants from pHVXU plasmids; conditions: for Growth inhibition zones of L. fermentum: FIG. 7, BY4742 with pHVXU plasmids, 30° C., 1 day

| Substance | Inhibition, L. reuteri CCUG 32624 [1] | Inhibition, L. fermentum NCCB 46038 [2] | Inhibition, P. pentosaceus NCCB 31016 [3] | Inhibition, E. faecium NCCB 86023 [4] | Inhibition, W. confusa CCUG30113 [5] | Inhibition, W. confusa CCUG30943 [6] | Inhibition, L. lactis NCCB 26066 [7] | Inhibition, L. delbrueckii CCUG 34222 [8] | Antibacterial activity against Lactobacillus amylovorus [9] | Antibacterial activity against Lactobacillus casei [10] | Growth inhibition zones of L. fermentum [11] | Increase in Activity ([11]; random mutagenesis clones of persulcatusin, increase of growth inhibition zones) |
| --- | --- | --- | --- | --- | --- | --- | --- | --- | --- | --- | --- | --- |
| Coagulin A | − | − | + | + | − | − | + | + |  |  |  |  |
| Engineered persulcatusin with [Mutation S7-192-1, Engineered persulcatusin with [F6L/G9D/R13S/H14Q]] | + | + | − | − | + | + | − | − | showed some antibacterial activity | showed some antibacterial activity | significantly bigger zones | ++++ |
| Enterocin A | − | − | + | − | − | − | + | + |  |  |  |  |
| Hiracin JM79 | − | − | − | + | − | − | − | − |  |  |  |  |
| Leucocin C | − | − | + | + | − | − | + | + |  |  |  |  |
| Ubericin A | − | − | + | − | − | − | + | + |  |  |  |  |
| Wild-type persulcatusin [Wild-type persulcatusin [Ixodes persulcatus]] | − | + | − | − | + | − | − | − |  |  | Growth inhibition zones of L. fermentum are observable |  |
